How the values were obtained:
uterine contractions = details: cited from earlier work; for stopping uterine contractions: vaginal progesterone, injection of 17 alpha-hydroxyprogesterone caproate
women = details: cited from earlier work
nonpregnant women = details: administered intravaginally, cited from earlier work
[1] = test system: healthy primiparous women at ≧40 weeks gestation; test: Clinical study: change from baseline in Bishop score and cervical dilation (cervical ripening), 24 h IV infusion; format: in vivo, human; set-up: key to Total Bishop Score - Change from Baseline, Minimum / Total Bishop Score - Change from Baseline, Maximum / Total Bishop Score - Change from Baseline, Mean / Total Bishop Score - Change from Baseline, Median: Bishop score points; total score ranges 0 to 13; details: for Total Bishop Score - Change from Baseline, Maximum / Total Bishop Score - Change from Baseline, Median / Total Bishop Score - Change from Baseline, Minimum / Total Bishop Score - Change from Baseline, Mean: 75 μg/kg/d IV, ITT
Description: Overview of the Clinical Study. The current study was designed with two objectives. The first was to determine the safety of intravenous administration of recombinant human relaxin in women at term for 24 hours. The second objective was to determine whether a high dose of relaxin administered by this method for 24 hours could ripen the cervix or induce labor. The primary efficacy endpoint was change from baseline in Bishop score, which is a composite, well accepted measurement of cervical ripening (Bishop, 1964). The score has 5 components, all of which contribute to the cervical changes necessary for vaginal delivery of the baby: dilation, effacement, station, consistency and position of cervix.
Study Subjects. Study subjects were healthy primiparous women at ≧40 weeks gestation who were admitted to the hospital for scheduled induction of labor. This study was conducted in compliance with the requirements of the protocol, International Conference on Harmonization (ICH), Good Clinical Practices (GCP), FDA, local regulations and BAS Medical, Inc.'s standard operating procedures (SOP). The investigators were responsible for obtaining informed consent from each patient participating in the study. All pertinent aspects of the study were explained to the patient before he or she signed the informed consent form. Informed consent was approved by local ethics committees and was obtained from the patient before any activity or treatment was undertaken which was not part of routine care. This included, but was not limited to, the performance of diagnostic or therapeutic procedures and the administration of the first dose of the study medication.
Part A was a multicenter, randomized, double-blind, placebo-controlled, dose escalation study of 18 subjects at ≧40 weeks gestation and who were scheduled for induction. Doses of 7.5, 25 and 75 mcg/kg/day of relaxin were tested. Subjects were treated in cohorts of 6 and randomly assigned to receive relaxin or placebo in a 4:2 ratio, respectively. Dose escalation to the next dose level occurred once safety data was reviewed.
(§1) Eligible patients were admitted to the hospital at least 24-hours prior to scheduled induction. Either relaxin or matching placebo was administered by continuous intravenous infusion for 24 hours prior to induction. Subjects were monitored throughout the administration of study medication for blood pressure and heart rate, as well as for uterine contractions and the onset of labor. Fetal nonstress testing and heart rate monitoring were conducted for evaluation of fetal well-being. Blood samples were drawn for serum chemistry and hematology at baseline, 12 and 24 hr of dosing, and at 2 days, 1 week and 4 weeks after delivery. Samples for the evaluation of serum relaxin levels were drawn at baseline, 30 minutes, 1, 4, 6, 12, and 24 hr of dosing and a sample of cord blood was also drawn for relaxin measurement. A sample was also drawn from the study subject at 2 days post-delivery. Samples for measurement of development of anti-relaxin antibodies were drawn prior to dosing and at 1 and 4 weeks post-delivery. Neonates were evaluated for relaxin levels at 2 days and for the presence of anti-relaxin antibodies at 1 and 4 weeks.
(§2) Part B of the study was a multi-center, randomized, double-blind, placebo-controlled, parallel-group study of 50 subjects at ≧40 weeks gestation and who were scheduled for induction. Subjects were randomized in a 1:1 ratio to the most appropriate dose of relaxin determined from Part A or to placebo. As in Part A, eligible subjects were administered an intravenous infusion of relaxin or placebo for 24 hours prior to induction. Subjects and neonates were evaluated in a manner identical to that in Part A for all assessments.
The primary efficacy endpoint was change from baseline in Bishop score at 6, 12 and 24 hours (or end of study drug administration). […]

[2] = test system: healthy primiparous women at ≧40 weeks gestation; test: Clinical study: safety (adverse events in subjects, fetuses, neonates); format: in vivo, human; details: for Serious adverse events in neonates (number): none related to the study drug
Description: Safety. Safety was assessed by means of reported and observed adverse events, physical examination and 12-lead ECG findings, vital sign measurements, and the results of clinical laboratory assessments. Serum clinical chemistry samples were taken at pre-dose, 12 and 24 hours following the start of dosing, 2 days, 1 week and 4 weeks postpartum. Maternal vital signs included temperature, heart rate and blood pressure. These evaluations were performed at screening, pre-dose, during dosing, 24-48 hours post-dosing and at 2 days, 1 week and 4 weeks post-partum. Measurements during the 24-48 hours post-dosing period were taken at 28, 32, 36, 40, 44 and 48 hours. Neonatal vital signs included temperature, pulse, respiration and blood pressure. All vital signs measurements were done at delivery, 2 days, 1 week and 4 weeks post-partum.
Adverse events in study subjects were recorded according to the time of onset, i.e. dosing period (0-24 hours), 24-hours post-infusion (24-48 hours) and follow-up (>48 hours). Adverse events reported in fetuses and in neonates were also summarized by treatment group. For laboratory tests (hematology, serum chemistry, urinalysis), vital signs, physical examination and ECGs summary statistics were provided for baseline and changes from Baseline for each scheduled time by treatment group. Post-hoc repeated measure analyses of systolic and diastolic blood pressure were also performed.

[3] = Serum relaxin concentrations (Relaxin ELISA); format: in vivo, human
Description: as §1
Relaxin ELISA. The measurement of serum relaxin concentrations is based on an enzyme immunoassay technique using 96-well microtiter plates coated with affinity purified goat-anti-relaxin antibodies. Pre-diluted controls and unknown samples were pipetted into the wells of the microtiter plate and incubated at 2-8° C. allowing for any relaxin present to bind to the anti-relaxin antibodies. After an overnight incubation the plates were washed to remove any non-reactive serum components. […] After a 20-minute incubation, an aliquot of 2M sulfuric acid was added to stop the color reaction and the absorbance was measured at 450 nm (reference 650 nm) using a plate spectrophotometer. […] The relaxin levels were quantified according to a standard curve generated by measuring purified recombinant relaxin in a 20% human serum matrix utilizing a four-parameter curve fit equation. […]

myometrium = details: in vitro, nonpregnant and pregnant uteri (MacLennan 1991); cited from earlier work
[4] = test system: healthy primiparous women at ≧40 weeks gestation; test: Clinical study: secondary efficacy endpoints related to delivery; format: in vivo, human
Description: as §1, §2
The primary efficacy endpoint was change from baseline in Bishop score at 6, 12 and 24 hours (or end of study drug administration). The score ranges from 0 (absence of any cervical changes) to a maximum of 13, representing a cervix that is completely dilated (>5 cm), effaced (>80%), soft, at a +1 or +2 station, and anteriorly positioned (Bishop, 1964). A number of secondary efficacy endpoints were also explored: Time to complete dilation; proportion of subjects with Bishop score change>3; proportion of subjects with Bishop score>5; proportion of subjects with Bishop score>8; time to active labor; time to delivery (vaginal or c-section); frequency of uterine contractions; incidence of uterine hyperstimulation requiring terbutaline treatment or discontinuation of study drug (relaxin or placebo) infusion; incidence of spontaneous labor; rates of c-section; incidence of abnormal fetal heart rate tracings; changes from baseline in systolic and diastolic blood pressure; changes from baseline in serum creatinine and predicted creatinine clearance as determined by the Cockroft-Gault formula.
Statistical Analysis. Analyses were conducted on the Intent-to-treat (ITT) population, which consisted of all randomized subjects and on the Per-protocol (PP) population, which consisted of all randomized subjects who received study medication for at least 18 hours (75% compliance) and had baseline and 24 hour (or end of treatment) assessments of the Bishop Score. For efficacy comparisons, the patients from Part A that received the active dose administered in Part B are pooled with the patients from Part B (pooled relaxin group) as are all placebo patients from parts A and B (pooled placebo group).

[5] = Last Obs., pooled relaxin group
[6] = pooled relaxin group, p 0.153 vs placebo
[7] = pooled relaxin group, p 0.213 vs placebo

In the case of CCCCCC(=O)O[C@]1(C(C)=O)CC[C@H]2[C@@H]3CCC4=CC(=O)CC[C@]4(C)[C@H]3CC[C@@]21C [17 alpha-hydroxyprogesterone caproate], the “safety questioned by the FDA” value (uterine contractions; Meis et al. 2003, FDA advisory committees 2006) is given as “increase in miscarriage and fetal death” and the stopping uterine contractions (uterine contractions) is given as “effective in stopping uterine contractions”.
In the case of CC(=O)[C@H]1CC[C@H]2[C@@H]3CCC4=CC(=O)CC[C@]4(C)[C@H]3CC[C@]12C [progesterone], the stopping uterine contractions (uterine contractions) is listed as “effective in stopping uterine contractions”.
In the case of porcine relaxin, the spontaneous labor (women; intracervical gel vs placebo (MacLennan 1986)) is listed as “more likely to go into spontaneous labor” and the “cervical effacement and time to delivery” value (women; intracervical pellet, randomized double-blind controlled trial (Evans et al. 1983)) is listed as “greater cervical effacement (thinning) and a shorter time to delivery”.
For relaxin, the “effect on cervical ripening” value (nonpregnant women; nonpregnant women) is given as “did not show any effect”, the safety of administration (nonpregnant women) is given as “safe and associated with minimal adverse side effects” and the “serum levels of relaxin after treatment” value (nonpregnant women) is given as “did not increase”. The “Total Bishop scores in the lower relaxin dose groups” value ([1]; 7.5 and 25 μg/kg/day, Part A, data not shown) was “no different than that seen in the pooled placebo group”, the “Total Bishop Score - Change from Baseline, Maximum” value ([1]; 6 hours, pooled relaxin group) was 9 and the “Total Bishop Score - Change from Baseline, Median” value ([1]; 6 hours, pooled relaxin group) was 1.00. For the same molecule, the “Total Bishop Score - Change from Baseline, Minimum” value ([1]; 6 hours, pooled relaxin group) was 0, the “Total Bishop Score - Change from Baseline, Mean” value ([1]; 6 hours, pooled relaxin group, P 0.2407 vs pooled placebo) was 1.55 and the “Total Bishop Score - Change from Baseline, Maximum” value ([1]; 12 hours, pooled relaxin group) was 7. The “Total Bishop Score - Change from Baseline, Median” value ([1]; 12 hours, pooled relaxin group) was 2.00, the “Total Bishop Score - Change from Baseline, Minimum” value ([1]; 12 hours, pooled relaxin group) was 0 and the “Total Bishop Score - Change from Baseline, Mean” value ([1]; 12 hours, pooled relaxin group, P 0.1085 vs pooled placebo) was 2.11. For the same molecule, the “increase in cervical dilation from the initial dilation” value ([1]; 24 hour time point, pooled relaxin group 75 mcg/kg/day IV (placebo 1.39 cm)) was 0.69 cm, the “Total Bishop Score - Change from Baseline, Maximum” value ([1]; 24 hours, pooled relaxin group) was 7 and the “Total Bishop Score - Change from Baseline, Median” value ([1]; 24 hours, pooled relaxin group) was 4.00. For the same molecule, the “Total Bishop Score - Change from Baseline, Minimum” value ([1]; 24 hours, pooled relaxin group) was 0, the “Total Bishop Score - Change from Baseline, Mean” value ([1]; 24 hours, pooled relaxin group, P 0.2507 vs pooled placebo) was 3.26 and the “Total Bishop Score - Change from Baseline, Mean” value ([1]; Last Obs. (last available value post-baseline), pooled relaxin group, P 0.4900 vs pooled placebo) was 3.59. For the same molecule, the “Total Bishop Score - Change from Baseline, Maximum” value [1, 5] was 9, the “Total Bishop Score - Change from Baseline, Median” value [1, 5] was 4.00 and the “Total Bishop Score - Change from Baseline, Minimum” value [1, 5] was 0. For the same molecule, the “Bishop score, difference between pooled relaxin and placebo groups” value ([1]; any of the observation times (6, 12, 24 hours)) was “no statistically significant differences”, the “cervical dilation compared to the placebo group” value ([1]; pooled relaxin group, p<0.024 by t-test) was “significantly reduced” and the “Serious adverse events in neonates (number)” value ([2]; 7.5 mcg/kg/d dose group) was “one”. The “adverse effects over the entire dosage range” value ([2]; intravenous, 7.5-75 mcg/kg/day, pregnant women at term) was “no relevant adverse effects”, the “Serious adverse events in neonates (number)” value ([2]; pooled relaxin group (75 mcg/kg/day)) was 4 and the “Serious adverse events in fetuses (number of events)” value ([2]; pooled relaxin group, fetal hypoxia of moderate severity, not related to the study drug) was “Two”. For the same molecule, the “effect on fetal heart rate” value ([2]; relaxin treatment) was “no effect”, the “serum relaxin concentration post partum” value ([3]; 2 days post partum) was “just above levels of detection” and the “peak mean serum relaxin concentration” value ([3]; relaxin group, 75 mcg/kg/day IV infusion, at 12 hours of dosing) was 13.0 ng/mL. For the same molecule, the “Mean serum relaxin concentration at baseline” value ([3]; relaxin group, baseline, reflecting endogenous relaxin levels) was 0.293 ng/mL, the “effect on myometrial contractions” value (myometrium) was “inhibits myometrial contractions of nonpregnant uteri, but does not affect the myometrium of pregnancy” and the “Time to Vaginal Delivery (mean + SD)” value ([4]; pooled relaxin group, n = 20, p 0.644 vs placebo) was 62 ± 40 h. The “Time to Onset of Active Labor” value ([4]; pooled relaxin group, n = 26, p 0.412 vs placebo) was 53 h, the “Time to Delivery for Vaginal + C-section (mean + SD)” value ([4]; pooled relaxin group, n = 29, p 0.251 vs placebo) was 69 ± 40 h and the “Incidence of Vaginal Deliveries” value [4, 6] was “(69%)”. For the same molecule, the “Incidence of Vaginal Deliveries (subjects/total)” value [4, 6] was 20/29, the “Incidence of Spontaneous Labor” value [4, 7] was “(41%)” and the “Incidence of Spontaneous Labor (subjects/total)” value [4, 7] was 12/29. For the same molecule, the “effect on incidence or time to vaginal delivery, incidence of spontaneous labor or time to the onset of labor” value ([4]; relaxin infusion vs placebo) was “did not significantly affect”.

From patent US20110166070A1, “METHOD OF PREVENTING PREMATURE DELIVERY” (priority 2008, published 2011)
